This note sets out measurements from US20240010635A1, “NOVEL INDIRUBIN DERIVATIVES HAVING HETEROBICYCLIC MOIETIES AND THE USE THEREOF” (priority 2022, published 2024).

Assay [1] deals with T1, FLT3 D835Y (Homo sapiens, UniProt P36888, D835Y).
T1 construct: Recombinant proteins containing the FLT3 and FLT3 (D835Y) domains were purchased from Promega; purchased Promega V4514
T1 sequence (P36888 610-943 D835Y limits assumed): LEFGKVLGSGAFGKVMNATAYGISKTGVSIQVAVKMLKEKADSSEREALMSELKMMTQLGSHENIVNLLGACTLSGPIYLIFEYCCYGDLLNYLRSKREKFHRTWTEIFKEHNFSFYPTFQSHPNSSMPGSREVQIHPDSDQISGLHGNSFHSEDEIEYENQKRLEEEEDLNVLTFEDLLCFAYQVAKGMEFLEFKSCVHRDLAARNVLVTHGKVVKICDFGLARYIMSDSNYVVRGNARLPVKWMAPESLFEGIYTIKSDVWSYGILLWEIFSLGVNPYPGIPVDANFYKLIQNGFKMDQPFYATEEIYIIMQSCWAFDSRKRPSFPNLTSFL
The assay can be described thus: ADP-Glo kinase assay, FLT3 D835Y. It counts as biochemical. To be noted: recombinant FLT3 (D835Y), 120 min room temperature, read-out: Enzyme activity (IC50, nM) FLT3 D835Y. How it is done:
(§1) FLT3 activity inhibition was measured by ADP-Glo kinase assay (Promega, cat #V9101). ADP-Glo kinase analysis method is an emission ADP detect method which measures kinase activity by quantification of ADP amount produced during kinase reaction and provides uniform high-throughput screening method.
(§2) Analysis performed in two steps. First, after kinase reaction, ADP-Glo™ reagent of equal volume was added to finish kinase reaction, and then the rest ATP was exhausted. Second, Kinase Detection Reagent was added to convert ADP to ATP and newly synthesized ATP was measured by luciferase/luciferin reaction at the same time. Generated light was measured by using luminometer. The measured luminescence amount can be applied to the ATP→ADP standard conversion curve to confirm the correlation with the ADP concentration.
(§3) Recombinant proteins containing the FLT3 and FLT3 (D835Y) domains were purchased from Promega (cat #V4064, cat #V4514), respectively. According to the manufacturer's instructions, optimal enzyme, ATP, and substrate concentration were established using the ADP-Glo™ Kinase Assay (Promega, USA). Kinase reaction buffer 5× (200 mM Tris-HCl, pH 7.5, 100 mM MgCl2, 0.5 mg/ml BSA) was diluted and used, and the diluted compound of the present invention (5×, 1 μl), FLT3 enzyme or FLT3/D835Y enzyme (2.5×, 2 μl) and substrate/ATP mixture (2.5×, 2 μl), were mixed sequentially and reacted at room temperature for 120 minutes. Then, ADP-Glo™ Reagent (5 μl) was added and reacted for 40 min at room temperature. Finally, after adding a reagent for detection (Kinase Detection Reagent, 10 μl), reacting at room temperature for 30 min, and then phosphorylation of substrate peptide was measured by measuring luciferase signal (Integration time 0.5-1 second) using SpectraMax ID5 reader (Molecular Devices LLC., San Jose, CA, USA). IC50 was calculated by nonlinear regression using Prism version 5.01 (GrapghPad).
(ADP-Glo first removes unused ATP, then detects ADP through luciferase.)

The test system of assay [2] is Molm-13. The assay can be described thus: Cell proliferation inhibition in AML cell line Molm-13 (Alamar Blue). In kind it is cell-based. To be noted: Homo sapiens, Molm-13, 72 hours, pM, read-out: Cell proliferation inhibitory activity (GI50) Molm-13. The source says:
(§4) Cell proliferation inhibition experiments on acute myeloid leukemia (AML) cell lines tested FLT3 inhibitory activity using MV4-11, Molm-13, and Molm-14 cells, which are FLT3-ITD-expressed AML cell lines. The origin of all cell lines is human-derived cell lines, and the place of purchase and culture conditions of each cell line are as follows.
(§5) MV4-11 cells were purchased form the American Type Culture Collection (ATCC, Rockville, MD, USA, cat #CRL-9591), Molm-13 (DSMZ, cat #ACC554), Molm-14 (DSMZ, cat #ACC777), and then cultured in RPMI 1640 medium (Corning Co. 10-040-CV) supplemented with 10% fetal bovine serum, 1% penicillin/streptomycin and 4 mM L-glutamine (Life Technology, GrandIsland, NY).
(§6) Cell viability was evaluated by Resazurin redox-based analysis method with Alamar Blue Assay Kit (Invitrogen, USA). Specifically, for MV4-11, Molm-13 and Molm-14 cells, 8000 cells were plated on 384-well plates in 45 μl of medium. Compounds were treated with dimethyl sulfoxide (DMSO) as a negative control group. After 3 days (72 hours) of compound addition, 5 μl of Alamar Blue kit reagent was added to each well of 384-well plate and incubated at 37° C. for 2 hours in a humidified CO2 incubator. After incubation, fluorescence density (Flu) was measured at a wavelength of 544 nm and 590 nm using SpectraMax iD3 Multi Mode Microplate Reader (Molecular Devices, ID3-STD). GI50 was calculated by nonlinear regression using Prism version 5.01 (GraphPad, LaJolla, CA, USA).

In assay [3] the target is T2, FLT3 WT (Homo sapiens, UniProt P36888).
T2 construct: Recombinant proteins containing the FLT3 and FLT3 (D835Y) domains were purchased from Promega; purchased Promega V4064
T2 sequence (P36888 610-943 limits assumed): T1 sequence (P36888 610-943 D835Y limits assumed) with Y226D
The assay can be described thus: ADP-Glo kinase assay, FLT3 WT. In kind it is biochemical. As to conditions: recombinant FLT3, ADP-Glo, 120 min room temperature; read-out: Enzyme activity (IC50, nM) FLT3 WT. The protocol: as §1, §2, §3

Assay [4] concerns Molm-14. Description: Cell proliferation inhibition in AML cell line Molm-14 (Alamar Blue). In kind it is cell-based. To be noted: Homo sapiens, Molm-14, 72 hours, pM, read-out: Cell proliferation inhibitory activity (GI50) Molm-14.
Text: as §4, §5, §6
(The colour change of resazurin is a common sign of viable cells or microbes.)

Residue numbers refer to the chain shown, from its start.

The IC50 is the concentration needed to halve the response being measured. As to `O=C1Nc2ccc(Cl)cc2/C1=C1/Nc2ccccc2/C1=N\OCCN1C[C@H]2C[C@@H]1CN2` [Example 11, (2Z,3E)-3-((2-((1R,4R)-2,5-diazabicyclo[2.2.1]heptan-2-yl)ethoxy)imino)-5′-chloro-[2,3′-biindolinylidene]-2′-one], the IC50 in assay [1] came to 0.553 nM; in assay [3], 4.57 nM. The values for the GI50 in assay [2] and in assay [4] were 162 pM and 100 pM, respectively.
For `O=C1Nc2ccc(Br)cc2/C1=C1/Nc2ccccc2/C1=N\OCCN1C[C@H]2C[C@@H]1CN2` [Example 13, (2Z,3E)-3-((2-((1R,4R)-2,5-diazabicyclo[2.2.1]heptan-2-yl)ethoxy)imino)-5′-bromo-[2,3′-biindolinylidene]-2′-one] the same measures were 0.686 nM, 4.72 nM, 200 pM and 170 pM.
